Measured values as given in patent publication US10010547B2 (CASCADIAN THERAPEUTICS, INC., priority 2014, dated 2018).
Counter-ions that a name gives are not always drawn. Like-named read-outs stand apart in the source and are kept apart here.

Columns and labels:
[1] = biological target: Chk-1 kinase (Homo sapiens (Human), UniProt O14757); test: Chk-1 Kinase Inhibiting Activity (33P-ATP filter assay, CHKtide substrate); format: biochemical; details: against Chk-1 kinase; read-out: IC50
Description: Chk-1 Kinase Inhibiting Activity
The compounds of the invention were tested for activity against Chk-1 kinase using the materials and protocols set out below.
Base Reaction buffer: 20 mM Hepes (pH 7.5), 10 mM MgCl2, 1 mM EGTA, 0.02% Brij35, 0.02 mg/ml BSA, 0.1 mM Na3VO4, 2 mM DTT, 1% DMSO
*Required cofactors are added individually to each kinase reaction
(i) Prepare indicated substrate in freshly prepared Base Reaction Buffer
(ii) Deliver any required cofactors to the substrate solution above
(iii) Deliver indicated kinase into the substrate solution and gently mix
(iv) Deliver compounds in DMSO into the kinase reaction mixture
(v) Deliver ^33P-ATP (specific activity 0.01 μCi/μl final) into the reaction mixture to initiate the reaction.
(vi) Incubate kinase reaction for 120 minutes at room temperature
(vii) Reactions are spotted onto P81 ion exchange paper (Whatman #3698-915)
(viii) Wash filters extensively in 0.1% phosphoric acid.
(ix) Dry filters and measure counts in scintillation counter
Recombinant full length construct, N-terminal GST tagged, purified from insect cells.
No special measures were taken to activate this kinase.
Final concentration in assay=0.5 nM
Peptide sequence: [[…]]
Final concentration in assay=20 μM
No additional cofactors are added to the reaction mixture
From the results obtained by following the above protocol, the IC50 values against Chk-1 kinase of each of the compounds of Examples 1-153 were determined and these are shown in Table 3.

[2] = tested on: MIA PaCa-2 cells; test: Gemcitabine Combination Cell Assay (Cell Titer Glo); format: cell-based; details: for IC50: Homo sapiens; for 10xLS: approximate concentration of Chk1 inhibitor that results in a 10-fold reduction in the IC50 of gemcitabine alone; for 2xLS: approximate concentration of Chk1 inhibitor that results in a two-fold reduction in the IC50 of gemcitabine alone
Description: Gemcitabine Combination Cell Assay
Exponentially growing MIA PaCa-2 (ATCC CRL-1420) cells are treated with trypsin to remove cells from the plate surface. Approximately 10,000 cells/well are plated in 96 well plates in RPMI containing 10% fetal bovine serum, 1% sodium pyruvate and 1% L-GlutaMax. Cells are allowed to adhere to the plate surface overnight. Serial half-log dilutions of Chk1 inhibitor test compounds and gemcitabine are made with a final highest concentration of 3000 nM and 100 nM, respectively. Chk1 inhibitors and gemcitabine are combined so that each concentration of Chk1 inhibitor is added to each concentration of gemcitabine. Each drug is also tested as a single agent. Drugs are added to adherent cells (in duplicate) and incubated for 72 h. At 72 h the cells are treated with Promega Cell Titer Glo reagent for approximately 15 minutes. Luminescence (relative light units, RLU) is recorded using a BMG Polarstar Omega plate reader. The single agent concentration that results in a 50% reduction in total signal (IC50) is calculated using PRISM software and a four-parameter non-linear regression curve fit. For combination studies the RLUs are plotted using PRISM on an XY plot with the gemcitabine concentration on the X axis and RLU on the Y axis. The RLU for each concentration of Chk1 inhibitor is plotted as a function of gemcitabine concentration. The IC50 for gemcitabine alone and at each concentration of Chk1 is determined using a four-parameter non-linear regression curve fit. The approximate concentration of Chk1 inhibitor that results in a two and ten-fold reduction in the IC50 of gemcitabine alone is calculated as an indication of synergistic potency.
From the results obtained by following the above protocol, the IC50 values against MIAPaca-2 cells of the Chk1 inhibitor alone (Chk1 IC50), the approximate concentration of Chk1 inhibitor that results in a two-fold (2×LS) and a 10-fold (10×LS) reduction in the IC50 of gemcitabine alone of each of the compounds of Examples 1-154 are shown in Table 4.

[3] = Chk1 inhibitor alone, MIA PaCa-2 cells, 72 h, read-out: Chk1 IC50
[4] = MIA PaCa-2, 72 h, read-out: Chk1 IC50 (nM)

Sequence of Chk-1 kinase (O14757 whole entry): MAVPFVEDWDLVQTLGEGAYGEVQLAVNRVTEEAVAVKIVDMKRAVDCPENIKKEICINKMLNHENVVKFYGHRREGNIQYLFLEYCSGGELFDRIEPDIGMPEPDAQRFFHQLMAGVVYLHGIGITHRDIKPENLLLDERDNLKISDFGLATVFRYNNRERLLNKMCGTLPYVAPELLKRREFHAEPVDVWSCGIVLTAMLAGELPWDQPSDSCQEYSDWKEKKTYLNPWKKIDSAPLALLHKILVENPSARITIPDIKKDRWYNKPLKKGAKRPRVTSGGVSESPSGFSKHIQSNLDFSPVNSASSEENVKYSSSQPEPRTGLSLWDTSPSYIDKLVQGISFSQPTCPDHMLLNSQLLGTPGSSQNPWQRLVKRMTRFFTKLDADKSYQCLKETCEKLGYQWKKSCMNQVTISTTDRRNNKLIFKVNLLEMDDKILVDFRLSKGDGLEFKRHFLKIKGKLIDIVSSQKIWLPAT

| IC50 [1] [nM] | IC50 [2, 3] [nM] | Structure (SMILES) | 10xLS ([2]; MIA PaCa-2 cells, 72 h) [nM] | 2xLS ([2]; MIA PaCa-2 cells, 72 h) [nM] | IC50 [2, 4] [nM] |
| --- | --- | --- | --- | --- | --- |
| 0.16 | 957 | COc1cc(CN2CCOCC2)ccc1-c1cc(Nc2cnc(C#N)cn2)n[nH]1 [Example 102, 5-[[5-[2-methoxy-4-(morpholinomethyl)phenyl]-1H-pyrazol-3-yl]amino]pyrazine-2-carbonitrile] | 300 | 10 |  |
| 0.15 | 36 | COc1cc(N2CCN(C(C)C)CC2)ccc1-c1cc(Nc2cnc(C#N)cn2)n[nH]1 [Example 81, 5-[[5-[4-(4-isopropylpiperazin-1-yl)-2-methoxy-phenyl]-1H-pyrazol-3-yl]amino]pyrazine-2-carbonitrile] | <30 | <3 |  |
| 14 | > 3000 | COc1cc(C2CCN(C)CC2)ccc1-c1cc(Nc2ccc(C#N)cn2)n[nH]1 [Example 25, 6-[[5-[2-methoxy-4-(1-methyl-4-piperidyl)phenyl]-1H-pyrazol-3-yl]amino]pyridine-3-carbonitrile] | >3000 | 300 |  |
| 0.14 | 111 | COc1cc(C2(F)CN(C)C2)ccc1-c1cc(Nc2cnc(C#N)cn2)n[nH]1 [Example 66, 5-[[5-[4-(3-fluoro-1-methyl-azetidin-3-yl)-2-methoxy-phenyl]-1H-pyrazol-3-yl]amino]pyrazine-2-carbonitrile] | 30 | <3 |  |
| 0.11 | 182 | COc1cc(CNC2CCN(C)CC2)ccc1-c1cc(Nc2cnc(C#N)cn2)n[nH]1 [Example 37, 5-[[5-[2-methoxy-4-[[(1-methyl-4-piperidyl)amino]methyl]phenyl]-1H-pyrazol-3-yl]amino]pyrazine-2-carbonitrile] | <100 | 3 |  |
| 0.88 | 2750 | CC(C)Oc1cc(C2CCN(C)CC2)ccc1-c1cc(Nc2cnc(C#N)cn2)n[nH]1 [Example 38, 5-[[5-[2-isopropoxy-4-(1-methyl-4-piperidyl)phenyl]-1H-pyrazol-3-yl]amino]pyrazine-2-carbonitrile] | 1000 | 100 |  |
| 0.14 | 188 | COc1cc(C2CCCN(C)C2)ccc1-c1cc(Nc2cnc(C#N)cn2)n[nH]1 (centres unmarked) [Example 40, 5-[[5-[2-methoxy-4-(1-methyl-3-piperidyl)phenyl]-1H-pyrazol-3-yl]amino]pyrazine-2-carbonitrile] | 30 | <3 |  |
| 0.15 | 183 | COc1cc(O[C@@H]2CCN(C(C)C)C2)ccc1-c1cc(Nc2cnc(C#N)cn2)n[nH]1 [Example 95, 5-[[5-[4-[(3R)-1-isopropylpyrrolidin-3-yl]oxy-2-methoxy-phenyl]-1H-pyrazol-3-yl]amino]pyrazine-2-carbonitrile] | <100 | <3 |  |
| 2.7 | 1410 | COc1cc(NCc2ccccc2)ccc1-c1cc(Nc2cnc(C#N)cn2)n[nH]1 [Example 2, 5-[5-(4-benzylamino-2-methoxy-phenyl)-1H-pyrazol-3-ylamino]-pyrazine-2-carbonitrile] | 1000 | 100 |  |
| 0.11 | 482 | COc1cc(C2(F)CCNCC2)ccc1-c1cc(Nc2cnc(C#N)cn2)n[nH]1 [Example 76, 5-[[5-[4-(4-fluoro-4-piperidyl)-2-methoxy-phenyl]-1H-pyrazol-3-yl]amino]pyrazine-2-carbonitrile] | 300 | 10 |  |
| 0.052 | 600 | COc1cc(CN(C)C2CCOCC2)ccc1-c1cc(Nc2cnc(C#N)cn2)n[nH]1 [Example 63, 5-[[5-[2-methoxy-4-[[methyl(tetra hydropyran-4-yl)amino]methyl]phenyl]-1H-pyrazol-3-yl]amino]pyrazine-2-carbonitrile] | 100 | <3 |  |
| 0.019 | 970 | COc1cc(CO[C@@H]2CCN(C(C)C)C2)ccc1-c1cc(Nc2cnc(C#N)cn2)n[nH]1 [Example 141, 5-[[5-[4-[[(3R)-1-isopropylpyrrolidin-3-yl]oxymethyl]-2-methoxy-phenyl]-1H-pyrazol-3-yl]amino]pyrazine-2-carbonitrile] | <300 | <10 |  |
| 0.16 | 1200 | COc1cc([C@@H]2CN(C(C)C)CCO2)ccc1-c1cc(Nc2cnc(C#N)cn2)n[nH]1 [Example 147, 5-[[5-[4-[(2R)-4-isopropylmorpholin-2-yl]-2-methoxy-phenyl]-1H-pyrazol-3-yl]amino]pyrazine-2-carbonitrile] | 300 | 10 |  |
| 0.15 | 233 | COc1cc(C2CCN(CCO)CC2)ccc1-c1cc(Nc2cnc(C#N)cn2)n[nH]1 [Example 99, 5-[[5-[4-[1-(2-hydroxyethyl)-4-piperidyl]-2-methoxy-phenyl]-1H-pyrazol-3-yl]amino]pyrazine-2-carbonitrile] | 30 | <3 |  |
| 0.016 | 74 | COc1cc(N2CCN[C@H](C)C2)ccc1-c1cc(Nc2cnc(C#N)cn2)n[nH]1 [Example 82, 5-[[5-[2-methoxy-4-[(3R)-3-methylpiperazin-1-yl]phenyl]-1H-pyrazol-3-yl]amino]pyrazine-2-carbonitrile] | <30 | <3 |  |
| 0.026 | 829 | COc1cc(CC2CCN(C(C)C)CC2)ccc1-c1cc(Nc2cnc(C#N)cn2)n[nH]1 [Example 144, 5-[[5-[4-[(1-isopropyl-4-piperidyl)methyl]-2-methoxy-phenyl]-1H-pyrazol-3-yl]amino]pyrazine-2-carbonitrile] | <300 | 10 |  |
| 0.031 | 254 | COc1cc(N(C)CC2CCN(C(C)C)CC2)ccc1-c1cc(Nc2cnc(C#N)cn2)n[nH]1 [Example 148, 5-[[5-[4-[(1-isopropyl-4-piperidyl)methyl-methyl-amino]-2-methoxy-phenyl]-1H-pyrazol-3-yl]amino]pyrazine-2-carbonitrile] | <100 | <3 |  |
| 10 | 5580 | COc1cc(C2CCN(C)CC2)ccc1-c1cc(Nc2cnc(C)cn2)n[nH]1 [Example 26, N-[5-[2-methoxy-4-(1-methyl-4-piperidyl)phenyl]-1H-pyrazol-3-yl]-5-methyl-pyrazin-2-amine] | >3000 | 1000 |  |

| Structure (SMILES) | IC50 [1] [nM] | IC50 [2, 3] [nM] | 10xLS ([2]; MIA PaCa-2 cells, 72 h) [nM] | 2xLS ([2]; MIA PaCa-2 cells, 72 h) [nM] | IC50 [2, 4] [nM] |
| --- | --- | --- | --- | --- | --- |
| COc1cc(C2(F)CCN(C)CC2)ccc1-c1cc(Nc2cnc(C#N)cn2)n[nH]1 [Example 64, 5-[[5-[4-(4-Fluoro-1-methyl-4-piperidyl)-2-methoxy-phenyl]-1H-pyrazol-3-yl]amino]pyrazine-2-carbonitrile hydrochloride] | 0.15 |  | 100 | 3 | 144 |
| CCN1CC[C@@H](OCc2ccc(-c3cc(Nc4cnc(C#N)cn4)n[nH]3)c(OC)c2)C1 [Example 140, 5-[[5-[4-[[(3R)-1-ethylpyrrolidin-3-yl]oxymethyl]-2-methoxy-phenyl]-1H-pyrazol-3-yl]amino]pyrazine-2-carbonitrile hydrochloride] | 0.021 |  | <300 | <10 | 618 |
